From ChEMBL document CHEMBL1909046, “DrugMatrix in vitro pharmacology data”

Legend:
Substance-K receptor = molecular target: T1, Substance-K receptor (Homo sapiens, UniProt P21452); assay type: cell membranes, CHO, Membrane; details: cho; also: in other assays of this panel Not Active means under 50% inhibition at 10 µM
T1 sequence (P21452 whole entry): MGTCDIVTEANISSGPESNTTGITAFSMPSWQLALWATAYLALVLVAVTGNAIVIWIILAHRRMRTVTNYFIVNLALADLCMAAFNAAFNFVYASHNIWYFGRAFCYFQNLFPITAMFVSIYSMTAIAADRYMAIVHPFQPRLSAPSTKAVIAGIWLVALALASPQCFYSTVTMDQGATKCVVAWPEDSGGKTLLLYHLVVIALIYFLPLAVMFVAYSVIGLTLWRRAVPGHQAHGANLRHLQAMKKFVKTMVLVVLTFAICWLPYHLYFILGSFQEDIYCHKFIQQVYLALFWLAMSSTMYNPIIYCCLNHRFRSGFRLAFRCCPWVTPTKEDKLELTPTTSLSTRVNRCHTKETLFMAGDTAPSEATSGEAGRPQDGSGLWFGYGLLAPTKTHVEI

[1] = DRUGMATRIX: Tumor Necrosis Factor (TNF), Non-Selective radioligand binding (ligand: [125I] TNF-alpha); assay type: cell membranes, Membrane; details: u-937; Not Active = under 50% inhibition at 10 µM
[2] = DRUGMATRIX: GABAA, Muscimol, Central radioligand binding (ligand: [3H] Muscimol); assay type: cell membranes, Rattus norvegicus, Wistar, Brain, Membrane; details: Not Active = under 50% inhibition at 10 µM
[3] = molecular target: T2, Neuropeptide Y receptor type 1 (Homo sapiens, UniProt P25929); assay type: cell membranes, Membrane; details: sk-n-mc; also: in other assays of this panel Not Active means under 50% inhibition at 10 µM
T2 sequence (P25929 whole entry): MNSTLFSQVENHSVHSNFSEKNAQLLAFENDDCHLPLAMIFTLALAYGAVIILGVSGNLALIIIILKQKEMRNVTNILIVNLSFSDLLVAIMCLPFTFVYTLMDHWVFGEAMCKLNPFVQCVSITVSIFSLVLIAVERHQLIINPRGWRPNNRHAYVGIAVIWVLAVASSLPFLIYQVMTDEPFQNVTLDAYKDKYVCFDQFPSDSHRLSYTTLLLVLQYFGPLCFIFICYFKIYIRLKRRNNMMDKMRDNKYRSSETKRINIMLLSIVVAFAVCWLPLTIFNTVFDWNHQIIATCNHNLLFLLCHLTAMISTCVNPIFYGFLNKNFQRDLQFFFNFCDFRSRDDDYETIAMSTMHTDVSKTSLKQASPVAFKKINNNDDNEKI

[4] = molecular target: cGMP-specific 3',5'-cyclic phosphodiesterase (Homo sapiens, UniProt O76074); experiment: DRUGMATRIX: Phosphodiesterase PDE5 enzyme inhibition (substrate: [3H]cGMP + cGMP); assay type: tissue-based, Platelet; details: platelet; Not Active = under 50% inhibition at 10 µM
Caspase-1 = molecular target: T3, Caspase-1 (Homo sapiens, UniProt P29466); design: species or system Escherichia coli;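 also: Caspase-1 enzyme inhibition assay with a peptide substrate; in other assays of this panel Not Active means under 50% inhibition at 10 µM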
T3 sequence (P29466 whole entry): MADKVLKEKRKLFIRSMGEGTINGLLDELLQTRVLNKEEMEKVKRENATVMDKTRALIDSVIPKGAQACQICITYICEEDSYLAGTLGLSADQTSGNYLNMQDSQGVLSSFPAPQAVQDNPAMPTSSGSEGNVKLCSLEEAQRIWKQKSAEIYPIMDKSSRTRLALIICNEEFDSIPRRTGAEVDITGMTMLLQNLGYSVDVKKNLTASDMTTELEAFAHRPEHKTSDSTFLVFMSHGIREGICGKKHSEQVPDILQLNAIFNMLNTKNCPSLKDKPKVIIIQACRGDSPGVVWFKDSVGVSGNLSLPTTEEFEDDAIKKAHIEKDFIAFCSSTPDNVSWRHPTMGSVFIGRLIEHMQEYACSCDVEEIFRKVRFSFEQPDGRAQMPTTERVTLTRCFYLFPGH

[5] = molecular target: T4, Receptor-type tyrosine-protein phosphatase C (Homo sapiens, UniProt P08575); design: species or system Escherichia coli;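 also: inhibition of CD45 enzyme activity measured using DiFMUP as substrate; in other assays of this panel Not Active means under 50% inhibition at 10 µM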
T4 sequence (P08575 whole entry): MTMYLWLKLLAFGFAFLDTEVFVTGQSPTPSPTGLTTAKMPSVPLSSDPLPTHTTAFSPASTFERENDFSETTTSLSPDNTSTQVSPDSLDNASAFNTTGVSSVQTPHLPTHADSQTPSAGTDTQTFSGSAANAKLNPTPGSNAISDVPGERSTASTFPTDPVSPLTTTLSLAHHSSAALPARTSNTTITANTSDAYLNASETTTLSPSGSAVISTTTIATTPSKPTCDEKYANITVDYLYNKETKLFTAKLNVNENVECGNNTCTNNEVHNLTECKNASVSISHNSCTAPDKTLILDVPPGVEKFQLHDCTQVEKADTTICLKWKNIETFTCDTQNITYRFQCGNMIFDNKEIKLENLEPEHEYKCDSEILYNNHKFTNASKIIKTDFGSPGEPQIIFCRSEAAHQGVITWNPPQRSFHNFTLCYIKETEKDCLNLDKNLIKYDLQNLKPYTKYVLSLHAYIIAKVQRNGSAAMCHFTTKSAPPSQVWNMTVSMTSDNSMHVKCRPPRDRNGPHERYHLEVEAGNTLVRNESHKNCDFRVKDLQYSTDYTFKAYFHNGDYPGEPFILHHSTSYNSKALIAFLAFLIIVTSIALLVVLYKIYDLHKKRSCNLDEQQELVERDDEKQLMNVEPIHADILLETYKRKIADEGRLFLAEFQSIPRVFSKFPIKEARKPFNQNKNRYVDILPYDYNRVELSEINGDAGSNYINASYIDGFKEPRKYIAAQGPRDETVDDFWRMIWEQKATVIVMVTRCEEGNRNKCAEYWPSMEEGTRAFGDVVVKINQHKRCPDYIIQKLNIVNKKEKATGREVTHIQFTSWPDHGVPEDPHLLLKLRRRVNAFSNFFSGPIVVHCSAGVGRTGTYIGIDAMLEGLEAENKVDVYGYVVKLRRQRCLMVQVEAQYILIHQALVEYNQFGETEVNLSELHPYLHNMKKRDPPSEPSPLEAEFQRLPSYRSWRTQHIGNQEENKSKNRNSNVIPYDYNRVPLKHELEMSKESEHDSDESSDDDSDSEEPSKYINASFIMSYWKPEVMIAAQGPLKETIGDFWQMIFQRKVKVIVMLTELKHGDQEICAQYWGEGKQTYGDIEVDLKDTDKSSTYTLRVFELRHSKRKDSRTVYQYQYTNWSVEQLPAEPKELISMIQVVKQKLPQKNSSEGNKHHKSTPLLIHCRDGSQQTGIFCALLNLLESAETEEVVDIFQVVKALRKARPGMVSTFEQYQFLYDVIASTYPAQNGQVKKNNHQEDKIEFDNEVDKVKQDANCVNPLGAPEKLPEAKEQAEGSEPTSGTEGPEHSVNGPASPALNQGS

Cytochrome P450 2E1 = Cytochrome P450 2E1 (Homo sapiens, UniProt P05181); details: bti-tn-5b1-4; also: in other assays of this panel Not Active means under 50% inhibition at 10 µM
Sequence of Cytochrome P450 2E1 (P05181 whole entry): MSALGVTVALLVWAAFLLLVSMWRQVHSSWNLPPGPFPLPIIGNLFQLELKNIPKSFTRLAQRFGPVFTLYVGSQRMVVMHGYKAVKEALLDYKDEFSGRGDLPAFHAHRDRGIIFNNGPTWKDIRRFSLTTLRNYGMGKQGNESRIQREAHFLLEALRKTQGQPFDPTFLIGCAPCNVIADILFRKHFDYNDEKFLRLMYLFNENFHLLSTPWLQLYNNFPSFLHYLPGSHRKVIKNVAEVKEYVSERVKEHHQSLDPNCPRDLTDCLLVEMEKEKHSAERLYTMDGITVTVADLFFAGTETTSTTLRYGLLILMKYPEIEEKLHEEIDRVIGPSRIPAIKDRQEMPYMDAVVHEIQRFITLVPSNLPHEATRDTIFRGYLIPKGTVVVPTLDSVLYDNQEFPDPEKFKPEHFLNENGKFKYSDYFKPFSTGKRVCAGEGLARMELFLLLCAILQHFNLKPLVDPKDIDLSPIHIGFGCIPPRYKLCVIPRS

CC(C)(C)NCC(O)c1ccc(O)c(CO)c1 (configuration not stated) [ALBUTEROL]
Not Active: IC50 (Substance-K receptor) | IC50 [1] | Ki [1] | IC50 [2] | Ki [2] | IC50 [3] | IC50 [4] | IC50 (Caspase-1) | IC50 [5] | IC50 (Cytochrome P450 2E1) | Ki (Cytochrome P450 2E1)

Oc1c(I)cc(I)c2cccnc12 [IODOQUINOL]
Not Active: IC50 (Substance-K receptor) | IC50 [1] | Ki [1] | IC50 [2] | Ki [2] | IC50 [3] | IC50 [4] | IC50 (Caspase-1) | IC50 [5] | IC50 (Cytochrome P450 2E1) | Ki (Cytochrome P450 2E1)

NNC(=O)c1ccncc1 [ISONIAZID]
Not Active: IC50 (Substance-K receptor) | IC50 [1] | Ki [1] | IC50 [2] | Ki [2] | IC50 [3] | IC50 [4] | IC50 (Caspase-1) | IC50 [5] | IC50 (Cytochrome P450 2E1) | Ki (Cytochrome P450 2E1)

CC1=C(/C=C/C(C)=C/C=C/C(C)=C\C(=O)O)C(C)(C)CCC1 [ISOTRETINOIN]
Not Active: IC50 (Substance-K receptor) | IC50 [1] | Ki [1] | IC50 [2] | Ki [2] | IC50 [3] | IC50 [4] | IC50 (Caspase-1) | IC50 [5] | IC50 (Cytochrome P450 2E1) | Ki (Cytochrome P450 2E1)

CO[C@@H]1[C@@H](O[C@@H]2O[C@H](C)[C@@H](O[C@H]3C[C@@](C)(O)[C@@H](OC(=O)CC(C)C)[C@H](C)O3)[C@H](N(C)C)[C@H]2O)[C@@H](CC=O)C[C@@H](C)[C@@H](O)/C=C/C=C/C[C@@H](C)OC(=O)C[C@H]1O [KITASAMYCIN]
Not Active: IC50 (Substance-K receptor) | IC50 [1] | Ki [1] | IC50 [2] | Ki [2] | IC50 [3] | IC50 [4] | IC50 (Caspase-1) | IC50 [5] | IC50 (Cytochrome P450 2E1) | Ki (Cytochrome P450 2E1)

CC(CCc1ccccc1)NCC(O)c1ccc(O)c(C(N)=O)c1 (configuration not stated) [LABETALOL]
Not Active: IC50 (Substance-K receptor) | IC50 [1] | Ki [1] | IC50 [2] | Ki [2] | IC50 [3] | IC50 [4] | IC50 (Caspase-1) | IC50 [5] | IC50 (Cytochrome P450 2E1) | Ki (Cytochrome P450 2E1)

Nc1nnc(-c2cccc(Cl)c2Cl)c(N)n1 [LAMOTRIGINE]
Not Active: IC50 (Substance-K receptor) | IC50 [1] | Ki [1] | IC50 [2] | Ki [2] | IC50 [3] | IC50 [4] | IC50 (Caspase-1) | IC50 [5] | IC50 (Cytochrome P450 2E1) | Ki (Cytochrome P450 2E1)

CCC[C@@H]1C[C@@H](C(=O)N[C@@H]([C@H]2O[C@H](SC)[C@H](O)[C@@H](O)[C@H]2O)[C@@H](C)O)N(C)C1 [LINCOMYCIN]
Not Active: IC50 (Substance-K receptor) | IC50 [1] | Ki [1] | IC50 [2] | Ki [2] | IC50 [3] | IC50 [4] | IC50 (Caspase-1) | IC50 [5] | IC50 (Cytochrome P450 2E1) | Ki (Cytochrome P450 2E1)

NCCCC[C@H](N[C@@H](CCc1ccccc1)C(=O)O)C(=O)N1CCC[C@H]1C(=O)O [LISINOPRIL ANHYDROUS]
Not Active: IC50 (Substance-K receptor) | IC50 [1] | Ki [1] | IC50 [2] | Ki [2] | IC50 [3] | IC50 [4] | IC50 (Caspase-1) | IC50 [5] | IC50 (Cytochrome P450 2E1) | Ki (Cytochrome P450 2E1)

COS(C)(=O)=O [METHANESULFONIC ACID METHYL ESTER]
Not Active: IC50 (Substance-K receptor) | IC50 [1] | Ki [1] | IC50 [2] | Ki [2] | IC50 [3] | IC50 [4] | IC50 (Caspase-1) | IC50 [5] | IC50 (Cytochrome P450 2E1) | Ki (Cytochrome P450 2E1)

COC(=O)c1ccc(O)cc1 [METHYLPARABEN]
Not Active: IC50 (Substance-K receptor) | IC50 [1] | Ki [1] | IC50 [2] | Ki [2] | IC50 [3] | IC50 [4] | IC50 (Caspase-1) | IC50 [5] | IC50 (Cytochrome P450 2E1) | Ki (Cytochrome P450 2E1)

C[C@](N)(Cc1ccc(O)cc1)C(=O)O [METYROSINE]
Not Active: IC50 (Substance-K receptor) | IC50 [1] | Ki [1] | IC50 [2] | Ki [2] | IC50 [3] | IC50 [4] | IC50 (Caspase-1) | IC50 [5] | IC50 (Cytochrome P450 2E1) | Ki (Cytochrome P450 2E1)
